The results in this text go back to publication PMC6315362, “Cytotoxic Potential of the Novel Horseshoe Crab Peptide Polyphemusin III” (Marine Drugs, 2018).

In one assay the test system is HL-60 cells. Kind of assay: Annexin V-FITC/propidium iodide double staining and flow cytometry. Format: cell-based, human. Particulars: for double-stained cells, Q2-2 (AV+PI+, late apoptotic/necrotic): 4 h. From the text:
To further investigate the effect of PM III on human cells, we performed annexin V-FITC/propidium iodide double staining with subsequent flow cytometric analysis. Annexin V-FITC binds to phosphatidylserine, which is exposed on the outer leaflet of the cellular plasma membrane at the initial stages of apoptosis, whereas propidium iodide (PI) preferentially stains nuclei of dead cells. Therefore, a combination of annexin V-FITC and PI assays allows differentiation between early apoptotic and late apoptotic/necrotic cell populations. PM III was used at two final concentrations of 2.5 and 5 μM. In order to elucidate the predominant mechanism of the PM III action, we applied a widely used caspase inhibitor, Z-VAD-FMK [23].
Cell death analysis with fluorescein isothiocyanate conjugated annexin V (annexin V-FITC)/propidium iodide double staining and dead cells counting with flow cytometry were performed 4 h after addition of polyphemusin III up to a final concentration of 2.5 or 5 μM. The Annexin V-FITC Apoptosis Detection Kit (BD Biosciences, Franklin Lakes, NJ, USA) was used according to the manufacturer’s protocol on a NovoCyte flow cytometer (ACEA Biosciences, San Diego, CA, USA). Each experiment was performed in triplicate. The apoptosis inducer camptothecin (Sigma-Aldrich, St. Louis, MO, USA) and the general caspase inhibitor, Z-VAD-FMK (BD Biosciences, Franklin Lakes, NJ, USA), were used. All flow cytometry experiments were performed twice.
In general terms: Flow cytometry measures light scatter and fluorescence of single cells or particles in a stream.

A further assay has as its system human cell lines. The assay is described as follows: MTT cytotoxic activity assay, IC50 summarised over cell lines. Type of assay: cell-based. Particulars: all human cells tested; MTT 48 h; read-out: IC50 range on human cancer, transformed, and normal cell lines. Here is the method:
Cytotoxic activities of PM III, its isoforms, and tachyplesins against seven human cell lines were evaluated. Four cancer (HL-60 acute promyelocytic leukemia, HeLa cervix adenocarcinoma, SK-BR-3 breast adenocarcinoma, A549 lung carcinoma), one transformed (HEK 293T transformed human embryonic kidney), and two normal human cell lines (HEF human embryonic fibroblasts and NHA normal human astrocytes) were used for these experiments. Cytotoxicity was measured by incubating the cells with serial dilutions of PM I, PM II, PM III, TP I, TP II, or TP III samples followed by MTT assay after 48 h. The half-maximal inhibitory concentrations (IC50) were measured as the peptide concentration at which cell viability was reduced by 50% in comparison to untreated cells (Table 3).
The colorimetric 3-(4,5-dimethylthiazol-2-yl)-2,5-diphenyltetrazolium bromide (MTT) dye reduction assay was used to determine the cytotoxicity of the polyphemusins and tachyplesins. Cells (3 × 10^3–6 × 10^3 per well) were placed into 96-well plates in Dulbecco’s modified Eagle’s medium (DMEM/F12) supplemented with 10% fetal bovine serum (FBS). […] The absorbance at 570 nm was measured by a microplate reader (Eppendorf, Hamburg, Germany).
In general terms: Tetrazolium dyes change colour on reduction, which living cells bring about.

Where a SMILES comes first, the peptide text is derived from it. Bridges are numbered along the chain shown (N, C = ends).

Consider `CC(C)[C@@H]1NC(=O)[C@H](CCCNC(=N)N)NC(=O)[C@H](Cc2ccccc2)NC(=O)[C@@H](NC(=O)CNC(=O)[C@H](CCCNC(=N)N)NC(=O)[C@@H](N)CCCNC(=N)N)CSSC[C@@H](C(=O)N[C@@H](CCCNC(=N)N)C(=O)O)NC(=O)[C@H](CCCNC(=N)N)NC(=O)[C@H](CCC(N)=O)NC(=O)[C@H](Cc2ccccc2)NC(=O)[C@@H]2CSSC[C@H](NC1=O)C(=O)N[C@@H](Cc1ccc(O)cc1)C(=O)N[C@@H](CCCNC(=N)N)C(=O)NCC(=O)N[C@@H](Cc1ccccc1)C(=O)N2` [PM III, polyphemusin III] (H-RRGCFRVCYRGFCFQRCR-OH; disulfide 4-17, 8-13 (inferred); N-terminus assumed), for which the “double-stained cells, Q2-2 (AV+PI+, late apoptotic/necrotic)” value with HL-60 cells (HL-60, 2.5 µM, 50 μM Z-VAD-FMK added) was above 30%; in the assay on HL-60 cells (HL-60, 2.5 µM, no Z-VAD-FMK) it was above 40%; in the assay on HL-60 cells (HL-60, 5 µM, 50 μM Z-VAD-FMK added), above 70%; in the assay with HL-60 cells (HL-60, 5 µM, no Z-VAD-FMK), above 80%. Also, in the assay with HL-60 cells (HL-60, 4 h of incubation, 50 μM Z-VAD-FMK), the “influence of the caspase inhibitor Z-VAD-FMK on the effect of the substance (annexin V-FITC/PI staining)” value is “almost not affected”. Also, the IC50 with human cell lines is below 10 µM.

By IC50 is commonly meant the concentration that inhibits the measured activity by half.
